Test systems include SF-268; CAKI-1; SW-620; ACHN; DU-145; M14; NCI/ADR-RES; MCF7; MOLT-4; SF-295; SK-MEL-28; UACC-257; MDA-N; HCC 2998; TK-10; HCT-116; HT-29; SK-MEL-5; A549; 786-0.
Common to all, as to test: NCI anticancer screen, dose series, 48 h

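96-well plates; 48 h exposure; 5 concentrations. Endpoints by linear interpolation between flanking doses. Not reached: highest tested concentration assigned. GI50: concentration for 50% inhibition of growth.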 Activity calls are given as the source filed them. Cut-off read from the data, not from the text of the source: active = GI50 up to about 1.1 µM and inactive = higher. Where a SMILES comes first, the peptide text is derived from it. [ ]: non-standard residue; d: D form. The star is where a group is joined. Cbz = O=C(OCc1ccccc1)*; Aib = CC(C)(N)C(=O)O

For `CC(C)CCNC(=O)c1ccc(CNC(=O)/C=C/c2ccc3c(c2)-c2ccccc2C3)cc1`, the GI50 was 38.7 µM (inactive) with SF-268; 26.5 µM (inactive) in the experiment with CAKI-1; 44.8 µM (inactive) in the experiment with SW-620; 57.4 µM (inactive) in the experiment on ACHN; 44.6 µM (inactive) with DU-145; 74.3 µM (inactive) in the experiment on M14. In addition, the GI50 was 34.2 µM (inactive) in the experiment with NCI/ADR-RES; > 100 µM (inactive) with MCF7; 36.2 µM (inactive) in the experiment with MOLT-4; 30.7 µM (inactive) in the experiment with SF-295; 34 µM (inactive) with SK-MEL-28; 95.9 µM (inactive) in the experiment on UACC-257. Besides, the GI50 in the experiment with MDA-N is 62.8 µM (inactive); with HCC 2998, 71.3 µM (inactive); in the experiment with TK-10, 40 µM (inactive); in the experiment with HCT-116, 59.8 µM (inactive); in the experiment on HT-29, 41.5 µM (inactive); in the experiment with SK-MEL-5 it was 36.9 µM (inactive). For the same molecule, the GI50 in the experiment with A549 is 41.5 µM (inactive); in the experiment on 786-0 it was 33.9 µM (inactive).
On to `O=S(=O)(N1CCCCN(S(=O)(=O)C(F)(F)F)CCCN(S(=O)(=O)C(F)(F)F)CCCN(S(=O)(=O)C(F)(F)F)CCCCN(S(=O)(=O)C(F)(F)F)CCCN(S(=O)(=O)C(F)(F)F)CCC1)C(F)(F)F`, for which the GI50 in the experiment with SF-268 was 31.1 µM (inactive); with CAKI-1 it was 37.2 µM (inactive); with SW-620, > 100 µM (inactive); in the experiment on ACHN, > 100 µM (inactive); with DU-145 it was > 100 µM (inactive); in the experiment on M14 it was 63.7 µM (inactive). Further, the GI50 in the experiment with NCI/ADR-RES is 53.2 µM (inactive); in the experiment with MCF7, > 100 µM (inactive); with MOLT-4 it was > 100 µM (inactive); in the experiment with SF-295, 22.9 µM (inactive); in the experiment with SK-MEL-28 it was > 100 µM (inactive); in the experiment on UACC-257, 49.3 µM (inactive). For the same molecule, the GI50 is > 100 µM (inactive) with MDA-N; > 100 µM (inactive) in the experiment on HCC 2998; 99.5 µM (inactive) with TK-10; 87.1 µM (inactive) in the experiment with HCT-116; > 100 µM (inactive) in the experiment on HT-29; 35 µM (inactive) with SK-MEL-5. The values for the GI50 with A549 and in the experiment with 786-0 were > 100 µM (inactive) and 18.2 µM (inactive), respectively.
On to `CC(=O)N1c2cc(/N=N/N(C)C)ccc2NC(=O)CC1C` (stereo not given), for which the GI50 in the experiment with SF-268, in the experiment with CAKI-1, with SW-620, with ACHN, with DU-145 and with M14 was > 100 µM (inactive) each time. The GI50 with NCI/ADR-RES, with MCF7, with MOLT-4, in the experiment with SF-295, in the experiment with SK-MEL-28 and with UACC-257 was > 100 µM (inactive) throughout. The GI50 in the experiment on MDA-N, with HCC 2998, in the experiment with TK-10, with HCT-116, in the experiment with HT-29 and in the experiment with SK-MEL-5 was > 100 µM (inactive) each time. Besides, the GI50 in the experiment on A549 and in the experiment on 786-0 was > 100 µM (inactive) in each case.
Regarding `COc1ccc2c(c1)CCc1cc(C(N)=O)c3nnnn3c1-2`, the GI50 in the experiment on SF-268 was 2.98 µM (inactive); in the experiment with CAKI-1, 36.7 µM (inactive); in the experiment on SW-620, > 100 µM (inactive); with ACHN, 30.5 µM (inactive); in the experiment on DU-145, 23.7 µM (inactive); in the experiment with M14 it was > 100 µM (inactive). Also, the GI50 with NCI/ADR-RES was > 84.5 µM (inactive); with MCF7, > 100 µM (inactive); with MOLT-4, > 38.8 µM (inactive); with SF-295, 44.1 µM (inactive); in the experiment on SK-MEL-28, > 100 µM (inactive); with UACC-257, 85.5 µM (inactive). Also, the GI50 was > 100 µM (inactive) in the experiment on MDA-N; 39.8 µM (inactive) with HCC 2998; 8.13 µM (inactive) in the experiment on TK-10; 67.1 µM (inactive) in the experiment with HCT-116; > 100 µM (inactive) in the experiment on HT-29; > 100 µM (inactive) with SK-MEL-5. The GI50 in the experiment with A549 was > 100 µM (inactive); with 786-0 it was 33.6 µM (inactive).
As to `CCOC(=O)/C1=C(\C)N(Cc2ccccc2)C(=O)c2ccccc2C(=O)c2c(O)ccc(O)c21`, the GI50 with SF-268, with CAKI-1, in the experiment on SW-620, in the experiment with ACHN, in the experiment on DU-145 and in the experiment with M14 was > 100 µM (inactive) each time. Moreover, the GI50 in the experiment with NCI/ADR-RES was > 100 µM (inactive); in the experiment on MCF7 it was < 0.01 µM (active); with MOLT-4 it was > 100 µM (inactive); in the experiment with SF-295, > 100 µM (inactive); with SK-MEL-28, > 100 µM (inactive); with UACC-257 it was > 100 µM (inactive). For the same molecule, the GI50 in the experiment on MDA-N, in the experiment with HCC 2998, with TK-10, in the experiment with HCT-116, with HT-29 and in the experiment on SK-MEL-5 was > 100 µM (inactive) each time. The GI50 in the experiment with A549 and in the experiment with 786-0 was > 100 µM (inactive) throughout.
Take `CC(C)(NC(=O)C(C)(C)NC(=O)OCc1ccccc1)C(=O)O` (Cbz-[Aib]-[Aib]-OH): the GI50 in the experiment on SF-268, in the experiment on CAKI-1, with SW-620, in the experiment on ACHN, in the experiment with DU-145 and in the experiment on M14 was > 100 µM (inactive) each time. Moreover, the GI50 in the experiment with NCI/ADR-RES, in the experiment with MCF7, with MOLT-4, with SF-295, in the experiment on SK-MEL-28 and in the experiment with UACC-257 was > 100 µM (inactive) in each case. In addition, the GI50 with MDA-N, in the experiment with HCC 2998, in the experiment with TK-10, in the experiment on HCT-116, in the experiment on HT-29 and with SK-MEL-5 was > 100 µM (inactive) each time. Also, the GI50 in the experiment with A549 and with 786-0 was > 100 µM (inactive) each time.
`O=C(/C=C/c1cccc(Br)c1)c1cccs1`: the GI50 is 19.6 µM (inactive) in the experiment with SF-268; 16.1 µM (inactive) in the experiment on CAKI-1; 9.35 µM (inactive) with SW-620; 20.1 µM (inactive) in the experiment on ACHN; > 10 µM (inactive) with DU-145; 25.1 µM (inactive) in the experiment on M14. In addition, the GI50 with NCI/ADR-RES is 23.6 µM (inactive); with MCF7 it was 3.44 µM (inactive); in the experiment on MOLT-4, 15.3 µM (inactive); in the experiment with SF-295 it was 16.6 µM (inactive); in the experiment on SK-MEL-28 it was 18.1 µM (inactive); in the experiment with UACC-257, 18.4 µM (inactive). Besides, the GI50 with MDA-N is 10.3 µM (inactive); in the experiment with HCC 2998, 23 µM (inactive); with TK-10, 16.4 µM (inactive); in the experiment on HCT-116, 5.47 µM (inactive); in the experiment on HT-29, 11.5 µM (inactive); in the experiment with SK-MEL-5, 16.9 µM (inactive). The GI50 was 17.4 µM (inactive) with A549 and 15.8 µM (inactive) with 786-0.

The record behind these values is ChEMBL document CHEMBL1201862, “PubChem BioAssay data set” (2004).
